What was measured:
TRPC5 [1] = settings: TRPC5 inhibition; cited from earlier work
TRPC5 [2] = settings: TRPC5 inhibition; cited from earlier work; remark: listed apart in the source
hTRPC5-T478C [3] = target: T1, hTRPC5-T478C (Homo sapiens, UniProt Q9UL62); test: hTRPC5-T478C FLIPR calcium flux IC50 assay; format: cell-based; settings: hTRPC5-T478C-HEK cells, Englerin A as channel agonist
T1 sequence (Q9UL62 1-973): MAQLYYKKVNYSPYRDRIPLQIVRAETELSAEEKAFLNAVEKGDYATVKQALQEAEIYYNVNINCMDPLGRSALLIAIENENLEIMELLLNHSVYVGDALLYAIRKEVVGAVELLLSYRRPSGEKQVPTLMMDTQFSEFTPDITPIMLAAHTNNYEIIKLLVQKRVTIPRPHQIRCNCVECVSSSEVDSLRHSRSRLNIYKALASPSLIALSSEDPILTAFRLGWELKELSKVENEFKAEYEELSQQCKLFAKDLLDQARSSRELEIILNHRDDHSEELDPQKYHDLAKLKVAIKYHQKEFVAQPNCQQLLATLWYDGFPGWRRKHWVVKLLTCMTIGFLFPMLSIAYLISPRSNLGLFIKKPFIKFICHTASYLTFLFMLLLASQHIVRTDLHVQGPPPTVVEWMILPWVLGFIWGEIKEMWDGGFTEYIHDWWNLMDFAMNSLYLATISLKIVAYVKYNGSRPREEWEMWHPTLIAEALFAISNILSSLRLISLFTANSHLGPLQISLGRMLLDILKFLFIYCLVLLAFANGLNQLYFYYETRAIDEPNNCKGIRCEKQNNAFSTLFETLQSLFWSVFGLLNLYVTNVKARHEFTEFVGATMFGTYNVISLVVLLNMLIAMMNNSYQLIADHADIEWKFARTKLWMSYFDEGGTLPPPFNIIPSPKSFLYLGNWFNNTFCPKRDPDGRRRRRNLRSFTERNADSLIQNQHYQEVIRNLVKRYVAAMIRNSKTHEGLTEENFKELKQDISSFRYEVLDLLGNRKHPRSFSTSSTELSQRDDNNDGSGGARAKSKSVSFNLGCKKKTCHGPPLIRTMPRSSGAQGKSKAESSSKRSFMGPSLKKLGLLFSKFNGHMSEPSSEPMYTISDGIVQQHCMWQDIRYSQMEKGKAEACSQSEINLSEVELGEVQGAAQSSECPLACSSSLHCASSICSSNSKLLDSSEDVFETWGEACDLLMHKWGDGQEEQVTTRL
Procedure: (§1) Cell culture: hTRPC5-T478C-HEK cells were cultured in a humid environment in 5% CO2 at 37° C.
(§2) Cell culture medium ingredients: • DMEM, Supplier: Gibco, Catalog No. 11965-092; • FBS, Supplier: Gibco, Catalog No. 10099-141C, Concentration: 10%; • Pen/Strep, Supplier: Invitrogen, Catalog No. 15140-122, Concentration: 1%; • Zeocin, Supplier: Invitrogen, Catalog No. R25005, Concentration: 200 μg/mL; • Blasticidin S, Supplier: Invitrogen, Catalog No. R21001, Concentration: 5 μg/mL.
(§3) In general, the TRPC5-T478C cell line was passaged three times weekly. The dilution factor for each passage was 1:3. Once the cells reached about 80% confluence in the T-75 flask, the cell line was digested with trypsin for about 1 minute and the cell suspension was removed from the flask with a pipette. Depending on the dilution ratio, the removed cell suspension would be transferred to another T-75 flask containing cell culture medium. Note that in order to maintain the logarithmic growth of the cells, the confluence of the cells should be maintained at the subconfluent stage and the cells should be passaged once every 2 to 3 days depending on the proliferation rate of the cell line.
(1) Preparation of cell plate: the cells were separated according to the above-mentioned passaging and the cell density and viability were determined using a cell counter. The volume of the cell suspension was adjusted with a cell culture medium. After the density reached to the plating density, 1 μg/mL tetracycline was added to induce hTRPC5-T478C channel expression. The induced hTRPC5-T478C cells were then seeded onto poly-D-lysine (PDL)-coated 384-well plates at a density of 20000 cells/well (30 μL/well). Then the cells were cultured overnight in a cell culture incubator.
(2) Preparation of compound plate: the compounds were generally diluted with DMSO, prepared into a mother liquor and stored in a −20° C. refrigerator. A compound plating program was set on the ECHO processor, and the compounds were plated with ECHO according to the concentration gradient that was already set. In general, 9 concentrations were included with the highest concentration at 10 μM, 3-fold dilution, and 2 replicate wells. Englerin A was used as the channel agonist.
(3) On-machine testing: the cell plates and compound plates were prepared according to the above-mentioned methods. After the cell confluence of the cell plate reached 80%-90%, the cells were removed from the incubator and the testing started. Ca5 dye (Molecular Devices #R8185) was formulated with test buffer. After the cell plate culture medium was removed with Bravo, 25 μL of Ca5 dye was added to each well, and the plate was incubated for 1 hour. After 1 hour, the cell plate and compound plate were placed in FLIPR^TETRA (Molecular Devices, USA) for FLIPR detection.
Data analysis was performed using Excel 2013 (Microsoft, USA) software and GraphPad Prism 6.01 software. The maximum signal was generated by FLIPR software. Data analysis was performed using Excel (2013) and Prism 6.01. Data quality and data stability were controlled using S/B>2.50 and Z factor>0.50. The calculation formula was as follows: S/B=Avg100%/Avg0%; Z factor=1−(3*SD100%+3*SDO %)/|Avg100%-Avg0%.

hTRPC5-T478C [4] = target: T1, hTRPC5-T478C; test: hTRPC5-T478C patch clamp IC50 assay; format: cell-based; settings: hTRPC5-T478C-HEK cells, whole-cell patch clamp, Englerin A agonist
Procedure: as §1, §2, §3
(1) Extracellular fluid: sodium chloride (145 mmol/L), potassium chloride (4 mmol/L), magnesium chloride (1.5 mmol/L), glucose (10 mmol/L), hydroxyethyl piperazineethanesulfonic acid (HEPES, 10 mmol/L). The extracellular fluid was adjusted to pH 7.4 with NaOH, and the osmotic pressure was adjusted to about 305 mOsm/L with pure water or sucrose.
(2) Intracellular fluid: cesium chloride (140 mmol/L), ethylene glycol diethyl ether diamine tetraacetic acid (EGTA, 1 mmol/L), magnesium chloride (2 mmol/L), glucose (10 mmol/L), hydroxyethyl piperazineethanesulfonic acid (HEPES, 10 mmol/L). The intracellular fluid was adjusted to pH 7.2 with […], and the osmotic pressure was adjusted to about 295 mOsm/L with pure water or sucrose.
(3) The extracellular fluid was required to be formulated once a week, and the intracellular fluid was required to be subpackaged and stored at −20° C. after formulation.
Positive reference compounds Englerin A and 2-aminoethoxydiphenyl borate (2-APB) were dissolved in 100% DMSO and stored as a 10 mM working solution after formulation. The test compounds were dissolved in 100% DMSO and stored as a 10 mM working solution after formulation. The final concentration of DMSO in the test solution should be less than 0.3%.
Whole-cell patch clamping was performed at room temperature. The electrical signals recorded using an EPC 10 USB amplifier (HEKA Elektronik, Germany) were low-pass filtered at 3 kHz and finally recorded in PatchMaster 2×90.5 software (HEKA Elektronik, Germany). In this step, the quality control standards were that the cell high-resistance seal was formed at a value greater than 500 MOhms and the detection current was greater than 0.3 nA.
The recording electrode was a borosilicate glass capillary (GC150tF-10, Harvard Apparatus Co., UK), which was pulled by a vertical puller (NARISHIGE PC-10, Japan) and polished. In this step, the quality control standard was that the electrode resistance was between 2 to 5 MΩ.
During whole-cell patch clamp recordings, a continuous filling system (BT100-2J, LongerPump, China) was used to continuously perfuse extracellular fluid. The filling system was mounted on the stage of an upright microscope (FN—S2N, Nikon, Japan), and the filling tip was manually positioned under the microscope.
The voltage instructions for hTRPC5-T478C current amplitude detection were as follows: the cells were clamped as follows: the clamping potential changed in a stepped manner from −40 mV to −80 mV (duration: 50 ms); then the clamping voltage ramped up to +80 mV, and the whole process lasted for 200 ms; then clamping was performed at +80 mV for 50 ms, and finally, the voltage returned to the clamping potential of −40 mV. […]

Compound | IC50 (hTRPC5-T478C [3]) [µM] | IC50 (hTRPC5-T478C [4]) [µM] | LPS-induced proteinuria (TRPC5 [1]) | podocyte cytoskeletal remodeling (TRPC5 [2]) | protamine sulfate-induced podocyte injury (TRPC5 [2])
c1ccc(Cn2c(NCc3ccco3)nc3ccccc32)cc1 [AC1903] | – | – | significantly reduces | protects | inhibits
CC(O)c1nc2c(c(Sc3ccc(F)cc3C(F)(F)F)n1)CCN(c1cn[nH]c(=O)c1Cl)C2 (stereo not shown) [Compound WX014] | 0.012 | – | – | – | –
Cc1cc(N2CCCCC2)nc2ccccc12 [ML204] | – | – | significantly reduces | protects | inhibits

Now from value to compound, other results behind:

IC50 (hTRPC5-T478C [3]) [µM] | IC50 (hTRPC5-T478C [4]) [µM] | Compound | LPS-induced proteinuria (TRPC5 [1]) | podocyte cytoskeletal remodeling (TRPC5 [2]) | protamine sulfate-induced podocyte injury (TRPC5 [2])
0.07 | 0.0894 | C=C(c1ccc(F)cc1C(F)(F)F)c1ncnc2c1CCN(c1cn[nH]c(=O)c1Cl)C2 [Compound WX003] | – | – | –
0.056 | – | O=c1[nH]ncc(N2CCc3c(ncnc3Sc3ccc(F)cc3Cl)C2)c1Cl [Compound WX017] | – | – | –

From patent US20250122190A1, “HALOGEN-SUBSTITUTED PYRIDAZINONE COMPOUND AND APPLICATION THEREOF” (MEDSHINE DISCOVERY INC., priority 2021, published 2025)
